Read-outs that look alike come from different tables or passages of the source.
What was measured:
recombinant human PKD1 [1] = biological target: T1, recombinant human PKD1 (Homo sapiens, UniProt Q15139); conditions: cited from earlier work
T1 construct: His; purchased Millipore (Billerica, MA)
T1 sequence (Q15139 1-912): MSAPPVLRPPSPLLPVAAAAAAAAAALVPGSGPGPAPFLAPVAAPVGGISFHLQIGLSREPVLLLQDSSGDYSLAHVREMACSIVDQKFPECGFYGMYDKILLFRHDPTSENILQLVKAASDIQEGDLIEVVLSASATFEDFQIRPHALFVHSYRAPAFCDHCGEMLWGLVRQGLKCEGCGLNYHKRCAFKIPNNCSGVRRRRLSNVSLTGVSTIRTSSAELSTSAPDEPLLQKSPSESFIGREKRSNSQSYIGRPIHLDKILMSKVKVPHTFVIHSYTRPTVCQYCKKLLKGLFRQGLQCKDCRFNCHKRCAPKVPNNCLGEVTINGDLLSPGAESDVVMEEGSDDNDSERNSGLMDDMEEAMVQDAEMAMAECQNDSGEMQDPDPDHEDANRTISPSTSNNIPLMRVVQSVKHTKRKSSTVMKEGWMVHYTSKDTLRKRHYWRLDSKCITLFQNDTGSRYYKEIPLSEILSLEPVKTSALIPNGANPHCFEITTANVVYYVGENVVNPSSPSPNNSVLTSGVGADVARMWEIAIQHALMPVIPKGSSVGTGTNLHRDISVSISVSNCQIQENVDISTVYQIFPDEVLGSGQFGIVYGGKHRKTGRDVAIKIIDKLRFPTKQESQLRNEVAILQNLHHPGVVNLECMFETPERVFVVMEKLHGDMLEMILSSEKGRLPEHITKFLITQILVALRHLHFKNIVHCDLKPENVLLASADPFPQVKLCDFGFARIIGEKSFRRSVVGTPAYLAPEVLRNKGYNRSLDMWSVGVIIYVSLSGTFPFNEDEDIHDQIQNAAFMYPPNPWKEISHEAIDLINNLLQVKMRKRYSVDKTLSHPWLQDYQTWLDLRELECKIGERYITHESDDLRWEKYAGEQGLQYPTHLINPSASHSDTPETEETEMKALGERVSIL

recombinant human PKD1 [2] = biological target: T1, recombinant human PKD1; experiment: In vitro radiometric PKD1 kinase assay; assay type: biochemical
Protocol: Kinase reactions were initiated with the addition of ATP (50 µM ATP, 1.0 µCi γ-^33P-ATP; Perkin Elmer, Boston, MA) and incubated for 20 min at 30°C. Twenty-five µL of the reaction was spotted onto Whatman P81 filter paper (Whatman Inc., Clifton, NJ). Filter papers were then washed three times in 0.5% phosphoric acid, air-dried, and counted using an LS6500 multi-purpose scintillation counter (Beckman Coulter, Fullerton, CA). IC50 determinations were performed using GraphPad Prism software 5.0. Radiometric PKD2 and PKD3 in vitro kinase assays were performed as previously described.

[3] = biological target: T2, endogenous PKD1 (Ser916 phosphorylation) in LNCaP prostate cancer cells (Homo sapiens, UniProt Q15139); experiment: Western blot of PMA-induced phospho-Ser916-PKD1 in LNCaP cells; assay type: cell-based; conditions: LNCaP cells; for Concentration dependence of inhibition of PMA-induced endogenous PKD1 activity: Western blot; for inhibition at 50 µM: read-out: Inhibition of phosphorylation of Ser916-PKD1
T2 construct: phosphorylation of endogenously expressed PKD1 Ser^916; endogenous in cells; host or cells: LNCaP prostate cancer cells
T2 sequence (Q15139 1-912): T1 sequence (Q15139 1-912)
Protocol: Briefly, prostate cancer cells (LNCaP) were exposed to test compounds. Cells were lysed in buffer (200 mM Tris-HCl, pH 7.4, 100 µM 4-(2-aminoethyl) benzenesulfonyl fluoride, 1 mM EGTA, and 1% Triton X-100) and cell lysates were subjected to SDS-PAGE then electrotransferred to nitrocellulose membranes. Membranes were blocked with 5% nonfat milk in Tris-buffered saline. Membranes were probed with a primary antibody then followed by a secondary anti-mouse or anti-rabbit secondary antibody conjugated to horseradish peroxidase (1∶1000, Bio-Rad). Bands were visualized by the enhanced chemiluminescence Western blotting detection system (Amersham Biosciences). The primary antibodies included p-S916-PKD1 antibody (Millipore) and GAPDH (Enzo Life Sciences, Plymouth Meeting, PA).
[…] Whole cell lysates were immunoblotted for phosphorylated Ser^916-PKD1 with GAPDH serving as a loading control.

recombinant human PKD1 [4] = biological target: T1, recombinant human PKD1; experiment: ATP competition studies (radiometric PKD1 assay, Michaelis-Menten/Lineweaver-Burk); assay type: biochemical; conditions: PKD1, ATP 12.5–1000 µM
Protocol: For ATP competition studies, recombinant human PKD1 (1 ng/µL) and Syntide-2 substrate peptide (200 ng/µl) in kinase buffer were incubated with a concentration range of test compound. Kinase reactions were initiated with a concentration range of cold ATP (12.5–1000 µM) supplemented with 1.0 µCi γ-^33P-ATP (Perkin Elmer) and processed as described above. Enzyme inhibition was analyzed and visualized using the Michaelis-Menten and Lineweaver-Burk functions of GraphPad Prism 5.0.

[5] = test system: T3, recombinant human protein kinase D1 (PKD1); experiment: IMAP-based PKD1 FP high throughput screening assay; assay type: biochemical; conditions: LOPAC screen, 10 µM, duplicate
T3 construct: His; purchased Millipore (Billerica, MA)
Protocol: An HTS IMAP-based PKD1 FP assay was developed and used to screen the PMLSC library to identify primary active compounds as previously described, [19]. In brief, the basis for the in vitro homogeneous IMAP PKD1 FP assay is the interaction of nanoparticles with covalent phosphorylated moieties generated when active PKD1 enzyme phosphorylates small, fluorescently labeled substrate peptides. The PKD1 kinase reactions were assembled stepwise by the addition of 3× substrate/ATP (300 nM/60 µM), compound and PKD1 enzyme (0.18 units/mL). Positive (MAX) and negative (MIN) control kinase reactions contained DMSO (1%) and Gö6976 (1 µM) or H-89 (100 µM) in 1% DMSO (final concentrations), respectively. All assay plates were setup in a standard 384-well configuration as previously described and all reagents were prepared in kinase reaction buffer. Kinase reactions were incubated for 90 min at room temperature and then were stopped with the addition of 18 µL of IMAP binding reagents (1∶400) in 1× binding buffer A (proprietary composition, Molecular Devices). These nanoparticles associate with substrate peptide phospho groups creating a larger phosphosubstrate–nanoparticle complex. The phosphosubstrate–nanoparticle binding can be quantified and is expressed as millipolarization (mP) units. […] Assay plates were centrifuged at 50 g for 1 min, incubated at room temperature for 2 hr and FP data were collected on a Molecular Devices SpectraMax M5 (excitation A485/emission A525). This assay was also used in secondary concentration response studies to initially determine IC50 concentrations of compounds. IC50 determinations were performed using GraphPad Prism software 5.0 (La Jolla, CA).
A PKD1 IMAP FP assay was developed and optimized to identify small molecule inhibitors of PKD1 kinase activity. Using this assay system, we screened the LOPAC and PMLSC compound sets (196,425 total compounds) for novel PKD inhibitory chemotypes. […] For the LOPAC screen each compound was evaluated in duplicate at a single concentration (10 µM). […]

PLK1 = experiment: IMAP-based PLK1 counter screen; assay type: biochemical; conditions: concentrations up to 50 µM
Description: (§1) It was also gratifying that, in general, our novel cell active PKD1 inhibitors appeared to be less promiscuous than PKD1 inhibitors having minimal to no cellular PKD1 inhibitory activity (Table 1). For example, CIDs 755673 and 1893668 display additional confirmed activity in six and seven, respectively, PubChem bioassays while CID 2011756 has confirmed activity in only one additional PubChem bioassay. […] In contrast, the remaining chemotypes registered as confirmed actives in 2–43 additional bioassays (Table 1). Additional chemical similarity searching, focusing on our four novel cell-active PKD1 inhibitory chemotypes, using MetaDrug also supports a comparative lack of promiscuity of these compounds.

CDK7 = experiment: IMAP-based CDK7 counter screen; assay type: biochemical; conditions: concentrations up to 50 µM
Description: as §1

AKT = experiment: IMAP-based AKT counter screen; assay type: biochemical; conditions: concentrations up to 50 µM
Description: as §1

[6] = radiometric PKD1 kinase assay, mean ± range or SD of 2–4 independent experiments, read-out: In vitro PKD1 IC50
[7] = 50 µM compound 45 min, then PMA 10 nM 20 min

Row | Compound | IC50 (recombinant human PKD1 [2]; [6]) [nM] | Inhibition of phosphorylation of Ser916-PKD1 (in words) [3, 7] | Mechanism of Action (with respect to ATP) (recombinant human PKD1 [4]) | also measured
1 | NC(=O)c1cc(-c2ccnc(NC3CCCCC3)c2)nc(N2CCNCC2)c1 [BKPDi] | – | – | – | Mechanism of Action (with respect to ATP) (recombinant human PKD1 [1]; known mechanism of action of the PKD inhibitor BKPDi, listed as BPKDi): ATP competitive
2 | CC1Cc2ccccc2N1c1ncnc(N)c1[N+](=O)[O-] (stereo not shown) [CID 2958734] | 6100 ± 200 | little or no inhibition | ATP competitive | –
3 | CC1(C)Oc2ccc3ccc(=O)oc3c2-c2cn[nH]c21 [CID 646236] | 1100 ± 100 | – | ATP competitive | –
4 | NC(=O)c1cn([C@@H]2O[C@H](CO)[C@@H](O)[C@H]2O)c2ncnc(N)c12 [CID 9549170, sangivamycin, reference compound] | – | – | ATP competitive | IC50 (recombinant human PKD1 [2]): 400 ± 300 nM
5 | O=C1c2ccccc2-c2onc3ccc(NCCCn4ccnc4)c1c23 [CID 663844] | 4800 ± 600 | little or no inhibition | – | –
6 | O=C1NCCCc2c1oc1ccc(O)cc21 [CID 755673] | – | confirmed as a cell active PKD1 inhibitor | – | Mechanism of Action (with respect to ATP) (recombinant human PKD1 [1]; previously determined): Non-ATP competitive; Concentration dependence of inhibition of PMA-induced endogenous PKD1 activity [3]: concentration-dependent inhibition
7 | CCC1=NNc2cccc3c(OC)ccc1c23 [CID 2876479] | 2200 ± 1800 | some cellular inhibition | ATP competitive | –
8 | Nc1nc2ccc([N+](=O)[O-])c(N)c2s1 [CID 5086667] | – | some cellular inhibition | ATP-competitive inhibitor | Mechanism of Action (with respect to ATP) (recombinant human PKD1 [4]; listed as 5086667): ATP competitive
9 | Clc1cncc(Cl)c1NNc1ccncc1 [CID 4438738] | 3300 ± 100 | – | ATP competitive | –
10 | NC(N)=NC(=O)c1nc(Cl)c(N)nc1N [CID 16230, amiloride chloride, reference compound] | 2100 ± 150 | little or no inhibition | – | inhibition at 50 µM [3, 7]: < 50%
11 | CC1CNCCN1S(=O)(=O)c1cccc2cnccc12 (stereo not shown) [H7] | – | – | – | Inhibition of control signal (primary active) [5]: ≥ 50%
12 | CNCCNS(=O)(=O)c1cccc2cnccc12 [H8] | – | – | – | Inhibition of control signal (primary active) [5]: ≥ 50%
13 | O=S(=O)(NCCNC/C=C/c1ccc(Br)cc1)c1cccc2cnccc12 [H89] | – | – | – | Inhibition of control signal (primary active) [5]: ≥ 50%
14 | CCN1/C(=C/C(C)=O)Sc2ccc(OC)cc21 [CID 1893668, (1Z)-1-(3-ethyl-5-methoxy-1,3-benzothiazol-2-ylidene)propan-2-one, reference compound] | 1700 ± 300 | – | – | inhibition at 50 µM [3, 7]: > 50%; EC50 ([3]; PMA stimulation, n = 3, read-out: Cellular EC50 (phospho-Ser916-PKD1)): 52000 ± 14000 nM; Concentration dependence of inhibition of PMA-induced endogenous PKD1 activity [3]: concentration-dependent inhibition
15 | (6Z)-6-[4-(3-aminopropylamino)-6-methyl-1H-pyrimidin-2-ylidene]cyclohexa-2,4-dien-1-one [CID 5389142] | – | – | ATP competitive | PLK1 kinase inhibition (PLK1): no kinase inhibition; CDK7 kinase inhibition (CDK7): no kinase inhibition; Inhibition of phosphorylation of Ser916-PKD1 [3, 7]: greater than 50%; Concentration dependence of inhibition of PMA-induced endogenous PKD1 activity [3]: concentration-dependent inhibition; AKT kinase inhibition (AKT): no kinase inhibition

Reference: PMC3187749, “Discovery of Diverse Small Molecule Chemotypes with Cell-Based PKD1 Inhibitory Activity” (PLoS ONE, 2011)
